The test system of the assay is patients of the practice. The assay is described as follows: second study: questionnaire on cardiac events in patients of the practice treated with finasteride vs control group. Format: in vivo, human. As to conditions: 4 events over 242 patient-years; control 3.5%/yr. As to the method:
Finasteride was being administered at a dosage of a single oral 5 mg tablet a day. This is the same tablet used in treatment of BPH as disclosed in U.S. Pat. No. 5,175,155 and such dosage applies in the present invention. However, use of a 2 mg or 10 mg oral tablet is contemplated.
Two studies were undertaken to determine whether finasteride was, in fact, effective in lessening the incidence of heart disease and other complications of atherosclerosis.
In the second study patients of the practice were given a questionnaire. Various patients had been treated with finasteride for varying lengths of time. Only those on the drug for at least one year were considered. The average time on finasteride was 3 years. The number of cardiac events occurring in the patients taking finasteride was only 4 events over 242 patient-years. (1.6%/yr.) In the control group 26 events occurred in the 3 years prior over 732 patient-years. (3.5%/yr.)
The […] observed in cardiac events is believed to be significant. (90% Cl equal to 1.4% to 3.7%)

On to `CC(C)(C)NC(=O)[C@H]1CC[C@H]2[C@@H]3CC[C@H]4NC(=O)C=C[C@]4(C)[C@H]3CC[C@]12C` [finasteride, 4-azaandrost-1-ene-17-carboxamide, N-(1,1-dimethylethyl)-3-oxo-(5a 17B)-], for which the “cardiac events per patient-year” value worked out at 1.6 %/yr.

(Values after US20010048942A1, “Dutasteride to prevent and treat atherosclerosis” (priority 2000, published 2001).)
